The test system of assay [1] is MCF-7. As to the kind of experiment: Cancer cell proliferation by population doubling time (PDT), MCF-7. Format: cell-based, human. The note with it: blocker 1 μM; for population doubling time: 30 min in serum-free medium, cells counted 5 h and 48 h after seeding. The method, then:
(§1) The human breast cancer cell lines MCF-7, BT132, and Sk-Br-3, human neuroblastoma cell line SHSY5Y, murine atrial tumor cell line HL-1 were used. These cell are known to express HERG channels. For chemical blocking of HERG conductance, tumor cells were incubated with dofetilide (1 μM), the anti-arrhythmic agent E4031 (1 μM) or cisapride (1 μM) for 30 min in serum-free medium. Control experiments wherein no dofetilide, no E-4031 and no cisapride was used were also performed.
(§2) Cell proliferation was assessed by characterizing the log phase growth with population doubling time (PDT) calculated by the equation: 1/(3.32*(log NH−log NI)/(t2−t1)), where NH is the number of cells harvested at the end of the growth period (at time t2) and NI is the number of cells at 5 hours (t1) after seed. Cells were counted by a flow cytometer (EPICS XL; Beckman Coulter Canada, Inc.), and the number obtained at 5 h (t1) after seeding was taken as an initial cell number (NI), and the number at 48 h (t2) after seeding was taken as an endpoint number (NH). The longer the PDT is, the slower the growth is.
(§3) In experiments involving interference RNA, in this case siRNA, the cells were transfected with siRNA using lipofectamine-2000 as a carrier to deliver the siRNA to the cells, according to the manufacturer's protocols. The sequence of our siRNA targeting HERG position 3498 bp is […] (SEQ ID NO:1). A negative control targeting the following sequence: […] (SEQ ID NO:2) has been used. The siRNA is designed as cassette using U6 as the promoter and its efficacy was validated by its ability to decrease HERG mRNA by around 78% determined by real-time RT-PCR. SiRNA targeting the following 2 target sequences: […] (SEQ ID 03) (starting at 255 bp) and […] (SEQ ID 04) (starting at 2609 bp) has also been tested. As an siRNA cassette is used, these sequences (SEQ ID 01-04) are also DNA sequences that are injected in the cells to produce in situ the siRNA that will interfere with expression of the HERG gene.

In assay [2] the test system is Sk-Br-3. As to the kind of experiment: Cancer cell proliferation by population doubling time (PDT), Sk-Br-3. Format: cell-based, human. The note with it: blocker 1 μM; for population doubling time: 30 min in serum-free medium, cells counted 5 h and 48 h after seeding. The procedure:
as §1, §2, §3

For a further assay, the system named is BT132. As to the kind of experiment: Cancer cell proliferation by population doubling time (PDT), BT132. The assay is classed as cell-based, human. The conditions noted are these: blocker 1 μM; for population doubling time: 30 min in serum-free medium, cells counted 5 h and 48 h after seeding. The method, then: as §1, §2, §3
The test system of the next assay is SHSY5Y. Kind of assay: Cancer cell proliferation by population doubling time (PDT), SHSY5Y. Format: cell-based, human. The note with it: blocker 1 μM; for population doubling time: 30 min in serum-free medium, cells counted 5 h and 48 h after seeding. The method, then: as §1, §2, §3
The test system of the next assay is HL-1. As to the kind of experiment: Cancer cell proliferation by population doubling time (PDT), HL-1. Format: cell-based, murine. The note with it: blocker 1 μM; for population doubling time: 30 min in serum-free medium, cells counted 5 h and 48 h after seeding. The procedure: as §1, §2, §3
Assay [3] has as its system MCF-7. As to the kind of experiment: Tumor growth in nude mice inoculated subcutaneously with MCF-7. The conditions noted are these: for tumor volume, Day 7 / tumor volume, Day 1: MCF-7 tumor in nude mice, 5 μg/tumor single intratumoral injection; for tumor volume, Day 7: 7 days after treatment; for tumor volume, Day 1: day of treatment; for % changes of tumor volume over control: MCF-7 tumor, 5 μg/tumor, day 7.

Assay [4] concerns SK-BR-3. Kind of assay: Tumor growth in nude mice inoculated subcutaneously with SK-BR-3. The conditions noted are these: for tumor volume, Day 7 / tumor volume, Day 1: Sk-Br-3 tumor in nude mice, 5 μg/tumor single intratumoral injection; for tumor volume, Day 7: 7 days after treatment; for tumor volume, Day 1: day of treatment; for % changes of tumor volume over control: Sk-Br-3 tumor, 5 μg/tumor, day 7.

In another assay the test system is MCF-7 cells. The note with it: cited from earlier work.
In the next assay the target is T1, EAG (Homo sapiens, UniProt O95259).
T1 sequence (O95259 1-989): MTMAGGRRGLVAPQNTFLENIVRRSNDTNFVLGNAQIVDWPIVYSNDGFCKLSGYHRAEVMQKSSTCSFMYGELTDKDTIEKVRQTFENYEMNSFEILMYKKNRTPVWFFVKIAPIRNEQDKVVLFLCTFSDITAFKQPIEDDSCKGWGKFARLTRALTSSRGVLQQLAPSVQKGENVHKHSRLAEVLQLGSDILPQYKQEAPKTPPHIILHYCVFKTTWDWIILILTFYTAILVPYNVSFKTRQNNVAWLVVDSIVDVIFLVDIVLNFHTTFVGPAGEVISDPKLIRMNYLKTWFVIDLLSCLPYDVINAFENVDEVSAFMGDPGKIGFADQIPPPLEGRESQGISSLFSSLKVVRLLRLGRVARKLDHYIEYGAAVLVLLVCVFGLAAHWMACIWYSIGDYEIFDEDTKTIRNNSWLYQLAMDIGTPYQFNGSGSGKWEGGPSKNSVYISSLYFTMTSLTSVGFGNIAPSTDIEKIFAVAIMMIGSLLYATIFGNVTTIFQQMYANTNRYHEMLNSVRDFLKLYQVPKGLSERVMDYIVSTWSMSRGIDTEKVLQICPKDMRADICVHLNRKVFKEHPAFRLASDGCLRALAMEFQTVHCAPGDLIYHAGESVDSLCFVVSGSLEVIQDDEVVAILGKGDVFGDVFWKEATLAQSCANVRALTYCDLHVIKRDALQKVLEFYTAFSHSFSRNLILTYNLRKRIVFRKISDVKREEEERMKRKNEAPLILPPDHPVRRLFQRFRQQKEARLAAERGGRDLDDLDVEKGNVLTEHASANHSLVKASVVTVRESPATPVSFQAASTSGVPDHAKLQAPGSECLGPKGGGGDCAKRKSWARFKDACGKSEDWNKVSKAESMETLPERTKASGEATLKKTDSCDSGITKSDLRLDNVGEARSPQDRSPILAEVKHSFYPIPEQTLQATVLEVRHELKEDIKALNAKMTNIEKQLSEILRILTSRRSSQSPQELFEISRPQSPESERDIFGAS
The note with it: extracellular perfusion; cited from earlier work.

Marks after values point to notes of the source that are not given here.

Take `COc1cc(N)c(Cl)cc1C(=O)NC1CCN(CCCOc2ccc(F)cc2)CC1OC` (stereo not shown) [Cisapride, cisapride]: the “% changes of population doubling time over control” value with MCF-7 [1] stood at 58%; in the assay with Sk-Br-3 [2], 114%; with BT132, 62%; in the assay on SHSY5Y it was 57%; in the assay with HL-1 it was 47%. The population doubling time in the assay with MCF-7 [1] is recorded as 71.7 ± 7.3* hours; with Sk-Br-3 [2] it was 174.3 ± 17.7* hours; with BT132, 88.1 ± 9.0* hours; in the assay on SHSY5Y, 92.0 ± 8.3* hours; in the assay on HL-1 it was 100.3 ± 9.8* hours. Also, the figures for the “tumor volume, Day 7” value in the assay with MCF-7 [3] and with SK-BR-3 [4] were 3.0 ± 0.4^+ cm^3 and 3.1 ± 0.3^+ cm^3, respectively. The “tumor volume, Day 1” value stood at 3.2 ± 0.5 cm^3 in the assay with MCF-7 [3] and 2.4 ± 1.3 cm^3 with SK-BR-3 [4]. For the same molecule, the “% changes of tumor volume over control” value was −42% with MCF-7 [3] and −45% in the assay with SK-BR-3 [4].
Consider `CN(CCOc1ccc(NS(C)(=O)=O)cc1)CCc1ccc(NS(C)(=O)=O)cc1` [Dofetilide, dofetilide], for which the “% changes of population doubling time over control” value with MCF-7 [1] is reported as 55%; in the assay with Sk-Br-3 [2], 128%; in the assay with BT132, 56%; in the assay with SHSY5Y it was 59%; with HL-1, 30%. The population doubling time in the assay with MCF-7 [1] was 70.4 ± 6.2* hours; in the assay with Sk-Br-3 [2] it was 184.0 ± 16.6* hours; in the assay on BT132, 84.8 ± 7.5* hours; in the assay on SHSY5Y, 95.2 ± 10.2* hours; in the assay on HL-1, 85.5 ± 9.2 h.
As for `Cc1cccc(CCN2CCC(C(=O)c3ccc(NS(C)(=O)=O)cc3)CC2)n1` [E-4031], the “% changes of population doubling time over control” value is recorded as 43% in the assay on MCF-7 [1]; 98% with Sk-Br-3 [2]; 48% with BT132; 70% in the assay on SHSY5Y; 37% in the assay on HL-1. The population doubling time is recorded as 64.9 ± 11.5* hours in the assay on MCF-7 [1]; 165.3 ± 15.2* hours in the assay with Sk-Br-3 [2]; 80.5 ± 8.2* hours in the assay with BT132; 101.8 ± 11.5* hours with SHSY5Y; 93.5 ± 10.0* hours in the assay on HL-1. For the same molecule, the “tumor volume, Day 7” value in the assay with MCF-7 [3] was 3.7 ± 0.8^+ cm^3; in the assay with SK-BR-3 [4] it was 4.1 ± 0.6*^+ cm^3. The “tumor volume, Day 1” value is reported as 3.5 ± 0.6 cm^3 in the assay with MCF-7 [3] and 2.1 ± 1.0 cm^3 with SK-BR-3 [4]. For the same molecule, the figures for the “% changes of tumor volume over control” value with MCF-7 [3] and with SK-BR-3 [4] were −30% and −28%, respectively.
For `CCCCc1oc2ccccc2c1C(=O)c1cc(I)c(OCCN(CC)CC)c(I)c1` [amiodarone], in the assay with MCF-7 cells, the “effect on growth/proliferation of MCF-7 human breast cancer cells” value is “inhibitory effects”.
With `COc1ccc(CCN2CCC(Nc3nc4ccccc4n3Cc3ccc(F)cc3)CC2)cc1` [astemizole], in the assay on MCF-7 cells (extracellular perfusion, cell line not given), the “inhibition of cell proliferation” value is given as around 23%. The “inhibition of EAG current” value at EAG was around 20%.
As to `Cc1cc(N)c2ccccc2[n+]1CCCCCCCCCC[n+]1c(C)cc(N)c2ccccc21` [dequalinium], in the assay on MCF-7 cells, the “effect on growth/proliferation of MCF-7 human breast cancer cells” value is given as “inhibitory effects”.

The values are drawn from patent publication US20090209619A1, “Depression of herg k+ channel function in mammallan cells and applications to the control of cancer cells division” (priority 2004, published 2009).
